Five molecules from ChEMBL document CHEMBL1133801, “Synthesis, characterisation and antiamoebic activity of new thiophene-2-carboxaldehyde thiosemicarbazone derivatives and their cyclooctadiene Ru(II) complexes” (Bioorg Med Chem Lett, 2001) can be followed below.

This experiment has as its system Entamoeba histolytica. Description: In vitro antiamoebic activity was evaluated against HK-9 strain of Entamoeba histolytica. The format is functional, organism-based.

In brackets after ≈: the same amount, converted by molar mass.

`S=C(N/N=C/c1cccs1)NC1CCCCC1` came in with an IC50 of 0.56 µg/mL (≈ 2.09 µM). The result for `S=C(N/N=C/c1cccs1)NC1CCCCCCC1` reads 0.5 µg/mL (≈ 1.69 µM).

In turn, `S=C(N/N=C/c1cccs1)NC1CCCC1` gave an IC50 of 0.64 µg/mL (≈ 2.53 µM). For `S=C(N/N=C/c1cccs1)N1CCCCCC1` the value was 0.7 µg/mL (≈ 2.62 µM); for `Cc1ncc([N+](=O)[O-])n1CCO` [METRONIDAZOLE], 0.22 µg/mL (≈ 1.29 µM).

For orientation: IC50 means the concentration that inhibits the measured activity by half. A high value points to a need for much substance.
